Results on 13 compounds are retold here after patent publication US7947839B2, “Heterocyclic-substituted bis-1,8 naphthalimide compounds, antibody drug conjugates, and methods of use” (Genentech, Inc., priority 2004, dated 2011).

Where a name gives a salt, the structure may show the parent alone. Read-outs that look alike come from different tables or passages of the source.

In test [1] the test system is BT474, H460, HCT116, HUVEC, LNCAP, MCF7, and PC3 cells. The experiment in a line: free test compound cell-based assay, 7 tumor cell panel (CellTiter-Glo). Also noted: species or system Human. Conditions: Homo sapiens, NSA = no significant activity. The protocol:
Heterocyclic-substituted bis-1,8-naphthalimide compounds of Formula XV in Table 2 were prepared and tested for in vitro activity against a panel of tumor cells (Example 110).
Alternatively, the efficacy of compounds of the invention can be assayed by the following free test compound cell-based assay protocol
• 1. Prepare each cell line (BT474, H460, HCT116, HUVEC, LNCaP, MCF7, and PC3) at 1 k cells/well in separate plates with Complete Media (CM): RPM1 […]+10% FBS (Fetal Bovine Serum)+1% of 200 mM L-Glutamine. Plate number depends on test compounds provided by submitter. • 2. Detach prospective cell lines by first removing the media. When the flask is empty of media, begin rinsing out individual flasks with 5 mL sterile PBS. Move the PBS around within the flask to rinse well. Decant the PBS and add aseptically 5 mL of Accutase/flask. Make sure the Accutase covers the entire flask. • 3. Immediately place the flask(s) into a 37° C. incubator to allow cells to detach for 5-7 minutes. • 4. Post 5-7 minutes, remove flask(s) from the incubator and begin harvesting the detached cells using a serological pipette. Pipette up and down along the back of the flask to facilitate cell detachment. Pipette the Accutase containing cells into a sterile 50 mL conical tube/cell line. Pipette 10 mL of sterile PBS and re-rinse the flask to obtain remaining cells and dispense it into the same 50 mL conical tube/cell line for a total volume of 15 mL/tube/cell line. • 5. After each cell line has been allocated to a designated tube, take out 100 μL/tube/cell line for the cell counts. While the cell counts are being calculated, centrifuge the 50 mL tubes at 1000 rpm at 4° C. with a high brake. • 6. When centrifugation and cell calculations are completed, decant excess liquid and resuspend the cell pellet(s) using 5 mL CM, depending on calculations. • 7. Using a 5 mL syringe and an 18 G ½ needle, strain the cells to help prevent aggregation. Further strain by using a […] cell filter to block out any huge aggregates not broken down by the needle. • 8. After cell straining and filtering, take out calculated amount for a 1 k cells/well into fresh media. Take the media containing cells and load 100 μL/well into a bottom tissue culture treated flat 96 well plate. • 9. Immediately place in a 37° C. incubator overnight to allow the cells to adhere to the tissue culture treated 96 well plates. Day 2: • 1. Test compounds are submitted at 10 mM in sterile DMSO. • 2. DMSO as negative control and a positive standard are used in every assay! • 3. Prepare a 1:1000 fold dilution for each test compound, control, and standard for a 10e-5 M starting point. Do a 1:100 first, then a 1:10. • 4. Prior to diluting samples, vortex the samples and the controls for a homogeneous mixture. Note any sample that will not solubilize and/or stay in suspension. • 5. When the samples are at 10e-5 M, vortex each tube well and spin down fluid to ensure sample remains in tacked. Manual Dilution Protocol: • 1. After the tubes are at a final 1:1000 (10e-5 M) dilution, load the first column of the microtube box with the prospective sample. Load DMSO and positive control in singlets. The test compounds are loaded in duplicates. Load the remaining empty microtube racks with 540 μL of media to prepare for a serial dilution of 1:10. • 2. Agitate and transfer 60 μL from column 1 into successive wells containing 540 μL of media (1:10). Therefore, transfer 60 μL of column 1 into 540 μL of column 2. Resuspend column 2 about 10-15×'s then transfer 60 μL from column 2 to column 3 etc. Automated Dilution Protocol: • 1. Once the tubes are at a final 1:1000 (10e-5 M), load the first column of the microtube box with the prospective sample. Load DMSO and positive control in singlets. The compounds are loaded in duplicates. Load the remaining empty microtube racks manually with 540 μL of media to prepare for the automated serial dilution of 1:10 (see above diagram). • 2. […]
On the technique in general: Cellular ATP, detected with luciferase, serves as a proxy for viable cell number.

Test [2] concerns MX-1 (mammary carcinoma) xenografts. Conditions: iv five daily doses at 20 mg/kg (2 cycles), or every 3 days for two doses at 55 mg/kg (2 cycles), or weekly for four doses; cited from earlier work.
Test [3] relates to human lung (LX-1) carcinoma xenograft. Conditions: in vivo; cited from earlier work.
For a further test, the system named is human melanoma (LOX). To be noted: in vivo; cited from earlier work.
For the next test, the system named is mouse xenograft models. To be noted: repeated dosing regimens; no strong schedule dependency; cited from earlier work.
The subject of test [4] is human colon (CX-1) carcinoma xenograft. To be noted: in vivo; cited from earlier work.
Test [5] addresses T1, topoisomerase I isolated from calf thymus (Bos taurus, UniProt F1MN93).
T1 construct: topoisomerase I isolated from calf thymus; from tissue; host or cells: calf thymus
T1 sequence (F1MN93 1-767): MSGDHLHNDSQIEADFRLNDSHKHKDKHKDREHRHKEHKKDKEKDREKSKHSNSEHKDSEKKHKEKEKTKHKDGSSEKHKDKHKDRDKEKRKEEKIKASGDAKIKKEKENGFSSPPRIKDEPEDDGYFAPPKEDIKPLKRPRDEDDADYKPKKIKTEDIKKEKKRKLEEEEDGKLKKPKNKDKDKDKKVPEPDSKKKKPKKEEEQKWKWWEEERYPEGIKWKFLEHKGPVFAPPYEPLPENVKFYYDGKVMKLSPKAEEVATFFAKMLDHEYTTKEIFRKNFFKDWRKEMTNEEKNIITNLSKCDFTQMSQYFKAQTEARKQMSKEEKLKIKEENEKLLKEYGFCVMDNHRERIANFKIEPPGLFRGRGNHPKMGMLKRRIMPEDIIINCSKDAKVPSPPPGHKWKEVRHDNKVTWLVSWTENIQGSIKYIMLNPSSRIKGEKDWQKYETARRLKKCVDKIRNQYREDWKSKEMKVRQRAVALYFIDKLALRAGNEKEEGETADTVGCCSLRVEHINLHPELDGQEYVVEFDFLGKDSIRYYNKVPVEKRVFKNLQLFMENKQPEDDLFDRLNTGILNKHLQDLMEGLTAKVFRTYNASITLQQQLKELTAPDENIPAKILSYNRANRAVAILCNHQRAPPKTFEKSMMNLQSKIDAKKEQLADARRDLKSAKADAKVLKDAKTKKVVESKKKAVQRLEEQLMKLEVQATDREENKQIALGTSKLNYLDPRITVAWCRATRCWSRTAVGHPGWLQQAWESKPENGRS
Conditions: supercoiled DNA relaxation assay; cited from earlier work.

The next test concerns topoisomerase II. To be noted: unlike most other known topoisomerase II inhibitors; cited from earlier work.
The mark [6] stands for this setting: average linear IC50 across the 7 tumor cell panel, read-out: Avg.
[7] abbreviates: average log IC50 across the 7 tumor cell panel, read-out: Avg. (log IC50) (converted).

Take `O=C1c2cccc3c(N4CCOCC4)ccc(c23)C(=O)N1CCN1C=[N+](CCN2C(=O)c3cccc4c(N5CCOCC5)ccc(c34)C2=O)CCC1` [Compound 57, N, N′-(bis-aminoethyl-1,4,5,6-tetrahydropyrimidinium)-bis-4-morpholino-1,8 naphthalimide]: the IC50 in test [1] (setting [6]) and in test [1] (setting [7]) was 468 nM throughout.

As for `O=C1c2cccc3c(N4CCNCC4)ccc(c23)C(=O)N1CCNCCCNCCN1C(=O)c2cccc3c(N4CCNCC4)ccc(c23)C1=O` [Compound 58a, N, N′-(bis-aminoethyl-1,3-propanediamine)-bis-4-piperazino-1,8 naphthalimide], the IC50 in test [1] (setting [6]) and in test [1] (setting [7]) was 1.7 nM in each case.

With `O=C1c2cccc3c(N4CCNCC4)ccc(c23)C(=O)N1CCNCCNCCN1C(=O)c2cccc3c(N4CCNCC4)ccc(c23)C1=O` [Compound 58b, N, N′-(bis-aminoethyl-1,2-ethanediamine)-bis-4-piperazino-1,8 naphthalimide], the IC50 in test [1] (setting [6]) and in test [1] (setting [7]) was 26.9 nM throughout.

`O=C1c2cccc3c(N4CCNCC4)ccc(c23)C(=O)N1CCN1C=[N+](CCN2C(=O)c3cccc4c(N5CCNCC5)ccc(c34)C2=O)CCC1` [Compound 59, N, N′-(bis-aminoetbyl-1,4,5,6-tetrahydropyrimidinium)-bis-4-piperazino-1,8 naphthalimide trifluoroacetate salt]: the IC50 in test [1] (setting [6]) and in test [1] (setting [7]) was 1.51 nM in each case.

With `CN1CCN(c2ccc3c4c(cccc24)C(=O)N(CCNCCNCCN2C(=O)c4cccc5c(N6CCN(C)CC6)ccc(c45)C2=O)C3=O)CC1` [Compound 60, N, N′-(bis-aminoethyl-1,2-ethanediamrne)-bis-4-(4-methylpiperazino)-1,8 naphthalimide], the IC50 in test [1] (setting [6]) and in test [1] (setting [7]) was 1.05 nM each time.

Take `CN1CCN(c2ccc3c4c(cccc24)C(=O)N(CCNCCNCCN2C(=O)c4cccc5c(Br)ccc(c45)C2=O)C3=O)CC1` [Compound 61, N, N′-(bis-aminoethyl-1,2-ethanediamine)-4-piperazino,4-bromo-1,8 naphthalimide]: the IC50 in test [1] (setting [6]) and in test [1] (setting [7]) was 40.7 nM in each case.

As to `CC(=O)c1ccc2c3c(cccc13)C(=O)N(CCNCCCNCCN1C(=O)c3cccc4c(N5CCOCC5)ccc(c34)C1=O)C2=O` [Compound 62, N, N′-(bis-aminoethyl-1,3-propanediamine)-4-acetyl,4-morpholino-1,8 naphthalimide], the IC50 in test [1] (setting [6]) and in test [1] (setting [7]) was 4.57 nM each time.

`CC(=O)N1CCN(c2ccc3c4c(cccc24)C(=O)N(CCNCCNCCN2C(=O)c4cccc5c(N6CCN(C(C)=O)CC6)ccc(c45)C2=O)C3=O)CC1` [Compound 63a, N, N′-(bis-aminoethyl-1,2-ethanediamine)-bis 4-(4-acetylpiperazino)-1,8 naphthalimide]: the IC50 in test [1] (setting [6]) and in test [1] (setting [7]) was 4.47 nM each time.

`CC(=O)N1CCN(c2ccc3c4c(cccc24)C(=O)N(CCN2C=[N+](CCN4C(=O)c5cccc6c(N7CCN(C(C)=O)CC7)ccc(c56)C4=O)CC2)C3=O)CC1` [Compound 63b, N, N′-(bis-aminoethy-4,5-dihydro-imidazolium)-bis 4-(4-acetylpiperazino)-1,8 naphthaliinide]: the IC50 in test [1] (setting [6]) and in test [1] (setting [7]) was 251 nM each time.

`CC(=O)N1CCN(c2ccc3c4c(cccc24)C(=O)N(CCNCCCNCCN2C(=O)c4cccc5c(N6CCN(C(C)=O)CC6)ccc(c45)C2=O)C3=O)CC1` [Compound 63c, N, N′-(bis-aminoethyl-1,3-propanediamine)-bis-4-(4-acetylpiperazino)-1,8 naphthalimide]: the IC50 in test [1] (setting [6]) and in test [1] (setting [7]) was 1.1 nM throughout.

For the compound `CC(=O)N1CCN(c2ccc3c4c(cccc24)C(=O)N(CCNCCCNCCN2C(=O)c4cccc5c(N(C)C)ccc(c45)C2=O)C3=O)CC1` [Compound 64, N, N′-(bis-aminoethyl-1,3-propanediamine)-4-(4-acetylpiperazino)-4-dimethylamino-1,8 naphthalimide], the IC50 in test [1] (setting [6]) and in test [1] (setting [7]) was 1.82 nM throughout.

Regarding `O=C1c2cccc3c(O)ccc(c23)C(=O)N1CCNCCCNCCN1C(=O)c2cccc3c(-n4ccnc4)ccc(c23)C1=O` [Compound 65, N, N′-(bis-aminoethyl-1,3-propanediamine)-4-(N-imidazolyl)-4-hydroxyl-1,8 naphthalimide], the IC50 in test [1] (setting [6]) and in test [1] (setting [7]) was 288 nM each time.

For the compound `O=C1c2cccc3cccc(c23)C(=O)N1CCNCCCNCCN1C(=O)c2cccc3cccc(c23)C1=O` [elinafide], the “regression of MX-1 (mammary carcinoma) xenografts” value in test [2] is “complete regression”. Moreover, the “tumor regression in human lung (LX-1) carcinoma xenograft model” value in test [3] was “partial and complete tumor regression, as well as some cures”. Also, the “efficacy in human melanoma (LOX) models” value with human melanoma (LOX) was “curative”. Besides, the antitumor activity entry with mouse xenograft models is given as “demonstrated antitumor activity”. In addition, the “tumor regression in human colon (CX-1) carcinoma xenograft model” value in test [4] was “partial and complete tumor regression, as well as some cures”. Further, the IC50 in test [5] was 5000 nM. Moreover, the DNA cleavage result with topoisomerase II is “does not cause significant DNA cleavage”.
